Experimental data published in ChEMBL document CHEMBL4190266, “Deconstruction - reconstruction approach to analyze the essential structural elements of tetrahydro-3-benzazepine-based antagonists of GluN2B subunit containing NMDA receptors” (Eur J Med Chem, 2017).

Tests used:
[1] = molecular target: T1, Sigma intracellular receptor 2 (Rattus norvegicus, UniProt Q5U3Y7); assay: Displacement of [3H]DTG from sigma2 receptor in rat liver membranes after 120 mins by microbeta scintillation counting method; format: cell membranes, Membrane
T1 sequence (Q5U3Y7 whole entry): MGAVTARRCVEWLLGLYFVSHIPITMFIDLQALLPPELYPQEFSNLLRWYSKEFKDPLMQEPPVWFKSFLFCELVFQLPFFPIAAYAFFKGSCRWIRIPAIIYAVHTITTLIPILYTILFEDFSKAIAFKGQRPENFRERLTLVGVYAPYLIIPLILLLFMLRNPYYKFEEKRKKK

[2] = Selectivity ratio of Ki for sigma2 receptor in rat liver membranes to Ki for recombinant human GluN1A/GluN2B receptor expressed in mouse L(tk-) cell membranes; format: cell-based
[3] = Displacement of [3H]ifenprodil from recombinant human GluN1A/GluN2B receptor expressed in mouse L(tk-) cell membranes after 120 mins by microbeta scintillation counting method
[4] = molecular target: Sigma non-opioid intracellular receptor 1 (Cavia porcellus, UniProt Q60492)
Description: Displacement of [3H]-(+)-pentazocine from sigma1 receptor in guinea pig brain cortex membranes after 120 mins by microbeta scintillation counting method

[5] = Selectivity ratio of Ki for sigma1 receptor in guinea pig brain cortex membranes to Ki for recombinant human GluN1A/GluN2B receptor expressed in mouse L(tk-) cell membranes; format: cell-based
[6] = n-Octanol-buffer distribution coefficient, log D of the compound at pH 7.4 by mass spectrometry based shake flask method; format: physicochemical
[7] = Antagonist activity at GluN1A/GluN2A receptor (unknown origin) expressed in Xenopus laevis oocytes assessed as inhibition of glutamate/glycine-induced channel current at 1 uM at -70 mV holding potential by two electrode voltage clamp method relative to control; format: cell-based; conditions: Homo sapiens
Homo sapiens = species on record: Homo sapiens; assay: Antagonist activity at glutamate/glycine-stimulated recombinant human GluN1A/GluN2B receptor expressed in mouse L(tk-) cells assessed as protection against receptor overstimulation-induced excitotoxicity at 10 to 100 uM preincubated for 30 mins followed by glutamate/glycine stimulation measured after 6 hrs by LDH release assay relative to control; format: cell-based
[8] = Selectivity ratio of Ki for PCP binding site of NMDA receptor in pig brain cortex membranes to Ki for recombinant human GluN1A/GluN2B receptor expressed in mouse L(tk-) cell membranes

Sigma non-opioid intracellular receptor 1, sequence (Q60492 whole entry): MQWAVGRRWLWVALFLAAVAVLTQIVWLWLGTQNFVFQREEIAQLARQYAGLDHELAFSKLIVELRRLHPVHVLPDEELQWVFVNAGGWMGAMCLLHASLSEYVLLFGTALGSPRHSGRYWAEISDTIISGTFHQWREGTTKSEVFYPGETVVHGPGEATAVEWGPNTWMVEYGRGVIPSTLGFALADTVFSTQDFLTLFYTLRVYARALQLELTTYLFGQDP

Ki [1] [nM]	Ki [4] [nM]	logD [6]	inhibition [7] [%]	Compound	Ratio Ki [2]	Ki [3] [nM]	Ratio Ki [5]	inhibition (Homo sapiens) [%]	Ratio Ki [8]
119	460			OC1CN(CCCCCc2ccccc2)CCc2ccccc21 (stereo not drawn)	2	67	7		
1000	1500			O=[N+]([O-])c1ccc2c(c1)C(O)CN(CCCCOc1ccccc1)CC2 (stereo not drawn)	1	770	2		
170	48			c1ccc(CCCCCN2CCc3ccccc3CC2)cc1	1	110	0.4		
970	> 10000	1.58		Nc1ccc2c(c1)C(O)CN(CCCCc1ccccc1)CC2 (stereo not drawn)	1	1000	> 10		
			87	CC(C(O)c1ccc(O)cc1)N1CCC(Cc2ccccc2)CC1 (stereo not drawn) [IFENPRODIL]		10			
116	100			O=[N+]([O-])c1ccc2c(c1)C(O)CN(CCCCCc1ccccc1)CC2 (stereo not drawn)	0.5	240	0.4		
300	1300			O=[N+]([O-])c1ccc2c(c1)C(O)CN(CCCc1ccccc1)CC2 (stereo not drawn)	3	110	12		
4600	320			O=[N+]([O-])c1ccc2c(c1)C(O)CN(Cc1ccccc1)CC2 (stereo not drawn)		> 1000	< 0.3		
120	16			c1ccc(-c2ccc(CN3CCc4ccccc4CC3)cc2)cc1	2	75	0.2		
1400	2800			O=[N+]([O-])c1ccc2c(c1)C(O)CN(Cc1ccc(-c3ccccc3)cc1F)CC2 (stereo not drawn)		> 1000			
220	621	3.82		O=[N+]([O-])c1ccc2c(c1)C(O)CN(CCCCc1ccccc1)CC2 (stereo not drawn)	0.7	300	2		
110	260			Nc1ccc2c(c1)C(O)CN(CCCCCc1ccccc1)CC2 (stereo not drawn)	0.9	130	2		
34	3.5		13	OC1CN(C2CCN(Cc3ccccc3)CC2)CCc2ccccc21 (stereo not drawn)	6	6	0.6	< 6	
280	> 10000			OC1CN(CCCCOc2ccccc2)CCc2ccccc21 (stereo not drawn)	1	250	> 41		
35	10	3.13		c1ccc(CCCCN2CCc3ccccc3CC2)cc1	0.15	230	0.04		
1400	800			O=C(c1ccccc1)N1CCC(N2CCc3ccccc3C(O)C2)CC1 (stereo not drawn)	2	890	0.9		
> 10000	1800			O=[N+]([O-])c1ccc2c(c1)C(O)CN(CCc1ccccc1)CC2 (stereo not drawn)	6	1600	1		
3200	1600			OC1CN(CCc2ccccc2)CCc2ccccc21 (stereo not drawn)	2		1		
760	230			OC1CN(Cc2ccc(-c3ccccc3)cc2)CCc2ccccc21 (stereo not drawn)	4	210	1		
1100	> 10000			COc1ccc(C(=O)CCCN2CCc3ccccc3C(O)C2)cc1 (stereo not drawn)		> 1000			
55	82		0.8	OC1CN(C2CCC(c3ccccc3)CC2)CCc2ccccc21 (mixture of isomers)	25	2.2	37	< 6	> 4500
				OC(CN1CCC(Cc2ccc(F)cc2)CC1)c1ccc(Cl)cc1 (stereo not drawn) [ELIPRODIL]		13			
24	360		4.8	O=[N+]([O-])c1ccc2c(c1)C(O)CN(C1CCC(c3ccccc3)CC1)CC2 (mixture of isomers)	2	16	23	< 6	
		2.7		OC1CN(CCCCc2ccccc2)CCc2ccccc21 (stereo not drawn)					
61	1100			O=C(CCCN1CCc2ccccc2C(O)C1)c1ccc(F)cc1 (stereo not drawn)	0.2		4		
		1.67		Oc1ccc2c(c1)CCN(CCCCc1ccccc1)CC2O (stereo not drawn)					
